{"source": "paper PMC12428237", "about": "“Study on the Calcium Transport-Promoting Property and Mechanism of the Peptide–Calcium Complex DEEENDQVK–Ca Based on a Caco-2 Monolayer Model” (Foods, 2025)", "key": {"Caco-2 monolayer [1]": {"tested_on": "Caco-2 monolayer", "details": "cited from earlier work; for increase of intestinal calcium transport compared with the control group: within 30 min", "procedure": "With 1~2 mg/mL of DK, the tran ... || This study’s results align with earlier findings regarding peptide–calcium complexes."}, "Caco-2 cells": {"tested_on": "Caco-2 cells", "test": "MTT cell viability assay", "type": "cell-based, human", "details": "24 h, concentration range 0~5 mg/mL, n = 3", "procedure": "Caco-2 cells were maintained in complete DMEM medium containing 20% (v/v) FBS, 1% non-essential amino acids, and penicillin-streptomycin (100 U/mL−100 μg/mL) at 37 °C under 5% CO2 atmosphere, with medium replacement every 48 h. At 80–90% confluency, cells were seeded into 96-well plates (1 × 10^4 cells/well). After 24 h of incubation, the original medium was exchanged for a new solution containing CaCl2 (0~5 mg/mL), DK (0~5 mg/mL), DK + CaCl2 (1:1 w/w, 0~5 mg/mL), DK–Ca (0~5 mg/mL), 2-APB (0~75 μmol/L), cytochalasin D (0~2 μg/mL), and mβCD (0~5 mmol/L). After 24 h of incubation, the cell viability was assessed by MTT [21]."}, "[2]": {"details": "cited from earlier work", "text": "Dietary calcium supplementation offers a direct solution to calcium deficiency. However, traditional calcium supplements (e.g., calcium carbonate) suffer from limitations such as low bioavailability and gastrointestinal irritation, which lead to reduced efficacy. […] This enhanced performance is primarily attributed to the peptide ... || This study’s results align with earlier findings regarding peptide–calcium complexes."}, "Caco-2 monolayer [3]": {"tested_on": "Caco-2 monolayer", "test": "Transepithelial permeability of sodium fluorescein (monolayer integrity)", "type": "in vitro ADME, human", "details": "Transwell, after 21 days of differentiation, mean ± SD", "procedure": "(§1) Caco-2 cells (passages 15–30) were seeded at 1 × 10^5 cells/mL in Transwell chambers (12 mm, 0.4 μm pores, polycarbonate membrane, 1.12 cm^2 area) to establish a Caco-2 monolayer model. The culture medium (0.5 mL in the apical and 1.5 mL in the basolateral) was refreshed every 48 h (first week), then daily (next two weeks). The integrity of the Caco-2 cell monolayer model was verified by the following multiple indicators: Transepithelial electrical resistance (TEER) was monitored every 48 h using an epithelial voltohmmeter (RE1600, Beijing Jingong Hongtai Technology Co., Ltd., Beijing, China). Alkaline phosphatase (ALP) activity was measured on days 8, 12, 14, 16, and 21 after inoculation utilizing an ALP assay kit, following the manufacturer’s protocol. Transepithelial permeability was evaluated using sodium fluorescein following the method of Qiu et al.."}, "Caco-2 monolayer [4]": {"tested_on": "Caco-2 monolayer", "test": "Calcium transport assay in Caco-2 monolayer model", "type": "cell-based, human", "details": "7.5 mM CaCl2 on AP side, AP to BL, HBSS pH 7.4, 37 °C, 120 min, calcium colorimetric kit 575 nm; mean ± SD, n = 3", "procedure": "as §1\nCaco-2 monolayer models with a TEER value exceeding 500 Ω·cm^2 are permitted for calcium transport studies. Following three sequential washes with Hank’s balanced salt solution (HBSS; calcium/magnesium-free, pH 7.4), monolayers were equilibrated at 37 °C for 30 min. Afterward, the Transwell chambers were moved to fresh receiver plates for transport assays.\nConcentration-dependent CaCl2 transport assay: 0.5 mL of CaCl2 solution (1.5~10 mM) was added to the apical (AP) side. The basolateral (BL) side contained 1.5 mL prewarmed HBSS. After 120 min incubation at 37 °C and 5% CO2, the BL side solution was collected for calcium transport analysis.\nTime-dependent CaCl2 transport assay: The AP side contained 0.5 mL of 7.5 mM CaCl2 solution, and the BL side 1.5 mL prewarmed HBSS. At designated intervals (30~180 min), 1 mL BL side solution was collected and replaced with equal volumes of fresh HBSS buffer to maintain consistency.\nDifferent concentrations of DK solution (0.5~2 mg/mL, 0.5 mL) containing 7.5 mM CaCl2, or 0.5 mL of DK–Ca solution (0.5~2 mg/mL), were added to the AP side. The BL side contained 1.5 mL prewarmed HBSS. The control group contained 7.5 mM CaCl2 alone on the AP side. At designated intervals (30~180 min), 1 mL BL side solution was collected and replaced with equal volumes of fresh HBSS buffer to maintain consistency.\nCalcium concentration in the collected sample was measured using a calcium colorimetric assay kit at 575 nm. Transported calcium was calculated as follows:(1) Tn=1.5Cn+1×∑k=1n-1Ck […]"}, "Caco-2 monolayer [5]": {"tested_on": "Caco-2 monolayer", "test": "Effect of dietary components (vitamin D3, phytic acid) on calcium transport in Caco-2 monolayer", "type": "cell-based, human", "details": "120 min, control without dietary component, n = 3", "procedure": "Vitamin D3 (0.5 μmol/L, dissolved in 0.1% ethanol) or phytic acid (1.8 mM, with a of phytic acid/calcium molar ratio of 0.24) was added to the AP side to evaluate the effect of dietary components on calcium transport. The group without an added dietary component served as the control group. After 120 min incubation, the BL side solution was collected for calcium transport analysis."}, "Caco-2 monolayer [6]": {"tested_on": "Caco-2 monolayer", "test": "Fluo-4 AM fluorescence imaging of intracellular calcium influx", "type": "cell-based, human", "details": "samples containing 150 μg/mL calcium, 24 h, Fluo-4 AM 4 μmol/L, confocal microscope", "procedure": "Fluorescence imaging based on intracellular calcium influx was conducted to assess the calcium transport-promoting effect in the Caco-2 monolayer following the method of Men et al.. Log-phase cells were seeded at 1.5 × 10^5 cells/well in 35 mm laser confocal dishes and gently agitated to ensure uniform distribution. Cultures were maintained at 37 °C in 5% CO2 with daily medium replacement until confluent monolayers formed. Subsequently, CaCl2, DK + CaCl2, and DK–Ca solutions (each containing 150 μg/mL calcium) were added separately. The group without an added sample served as the control group. Following 24 h of incubation, the cells were washed thrice with prewarmed calcium-/magnesium-free HBSS buffer (pH 7.2). Under light-protected conditions, 200 µL of Fluo-4 AM (4 μmol/L) was applied to cover the cells. Following 30 min incubation at 37 °C and subsequent washes, cells were dark-adapted for 10 min at room temperature for de-esterification. Imaging was conducted using a confocal microscope (excitation at 496 nm, Zeiss LSM980 Airyscan2, Carl Zeiss, Germany ), followed by quantification of the fluorescence intensity with ImageJ 1.54 g software."}, "Caco-2 monolayers": {"tested_on": "Caco-2 monolayers", "details": "120 min; cited from earlier work", "experimental": "To assess component changes in DK–Ca after 120 min of calcium-promoting transport, solutions collected from the AP and BL sides of the monolayer were subjected to RP-HPLC analysis."}}, "note": "Read-outs that look alike come from different tables or passages of the source.", "data": [{"compound": "AHVGMSGEEPE-Ca [AHV-Ca, rice peptide–calcium complex]", "values": [{"measurement": "transported calcium", "setting": "Caco-2 monolayer [1]; Caco-2 monolayers", "result": "61.75 ± 13.23", "unit": "μg/well"}, {"measurement": "transported calcium, fold versus CaCl2", "setting": "Caco-2 monolayer [1]; Caco-2 monolayers", "result": 2.16, "unit": "fold"}]}, {"compound": "C=C1[C@@H](C)[C@H]2[C@H](Cc3ccccc3)NC(=O)[C@]23[C@H](OC(C)=O)/C=C/[C@@](C)(O)C(=O)[C@@H](C)C/C=C/[C@H]3[C@@H]1O", "note": "[cytochalasin D, Cytochalasin D]", "values": [{"measurement": "cytotoxicity to Caco-2 cells", "setting": "Caco-2 cells", "result": "no cytotoxicity"}]}, {"compound": "DHTKE [DHTKE–calcium complex, egg white hydrolysate-derived DHTKE–calcium complex]", "values": [{"measurement": "increase of transported calcium compared to the calcium-free control group", "setting": "Caco-2 monolayer [1]", "result": "seven-fold"}]}, {"compound": "GPAGPHGPVG [tilapia collagen-derived peptide]", "values": [{"measurement": "increase of intestinal calcium transport compared with the control group", "setting": "Caco-2 monolayer [1]", "result": 89, "unit": "%"}]}, {"compound": "FDHIVY [tilapia collagen-derived peptide]", "values": [{"measurement": "increase of intestinal calcium transport compared with the control group", "setting": "Caco-2 monolayer [1]", "result": 202, "unit": "%"}]}, {"compound": "YGTGL", "values": [{"measurement": "calcium-binding capacity", "setting": "[2]", "result": 76.03, "unit": "mg/g"}]}, {"compound": "O=C([O-])c1ccccc1-c1c2ccc(=O)cc-2oc2cc([O-])ccc12.[Na+].[Na+]", "note": "[sodium fluorescein]", "values": [{"measurement": "apparent permeability coefficient (Papp)", "setting": "Caco-2 monolayer [3]; 30 min", "result": "7.17±0.22 ×10^-7 cm/s"}, {"measurement": "apparent permeability coefficient (Papp)", "setting": "Caco-2 monolayer [3]; 60 min", "result": "7.47±0.25 ×10^-7 cm/s"}, {"measurement": "apparent permeability coefficient (Papp)", "setting": "Caco-2 monolayer [3]; 90 min", "result": "7.56±0.64 ×10^-7 cm/s"}, {"measurement": "apparent permeability coefficient (Papp)", "setting": "Caco-2 monolayer [3]; 120 min", "result": "8.35 ± 0.15 ×10-7 cm/s"}]}, {"compound": "VLPVPQK", "values": [{"measurement": "calcium-binding capacity", "setting": "[2]", "result": 129.46, "unit": "mg/g"}]}, {"compound": "[Ca+2].[Cl-].[Cl-]", "note": "[CaCl2]", "values": [{"measurement": "transported calcium", "setting": "Caco-2 monolayer [4]", "result": "27.55 ± 1.20", "unit": "μg/well"}, {"measurement": "reduction of transported calcium by phytic acid compared to the control group", "setting": "Caco-2 monolayer [5]; phytic acid 1.8 mM (phytic acid/calcium molar ratio 0.24) on AP side", "result": 49.11, "unit": "%"}, {"measurement": "increase of transported calcium by vitamin D3 compared to the control group", "setting": "Caco-2 monolayer [5]; vitamin D3 0.5 μmol/L on AP side", "result": 22.68, "unit": "%"}, {"measurement": "decrease of calcium absorption by phytic acid", "setting": "Caco-2 monolayer [1]", "result": 79.86, "unit": "%"}, {"measurement": "fluorescence intensity (intracellular calcium influx) compared to the control group", "setting": "Caco-2 monolayer [6]", "result": "significantly increased"}]}, {"compound": "YQEPVPVRGPFPIIV", "values": [{"measurement": "cleavage after culture in Caco-2 monolayers", "setting": "Caco-2 monolayers", "result": "cleaved into […] and […]"}]}, {"compound": "LVFL", "values": [{"measurement": "calcium-binding capacity", "setting": "[2]", "result": 79.50, "unit": "mg/g"}]}, {"compound": "AHVGMSGEEPE [rice protein-derived peptide]", "values": [{"measurement": "calcium-binding capacity", "setting": "[2]", "result": 55.69, "unit": "mg/g"}]}, {"compound": "YQEPVIAPKL [tilapia collagen-derived peptide]", "values": [{"measurement": "increase of intestinal calcium transport compared with the control group", "setting": "Caco-2 monolayer [1]", "result": 130, "unit": "%"}]}]}
